Tests used:
[1] = test system: thrombin-induced focal cerebral ischemic model; experiment: Thrombin-induced focal cerebral ischemic model: survival and neurological symptom score; type: in vivo, male Wistar rats
Experimental: Twenty male Wistar rats (8-weeks age) were used as one group. The rats were anesthetized with halothane, followed by incision and then subjected to carotid artery shunting. A polyethylene catheter containing thrombin (10 international units) was catheterized into the carotid artery, and […] of blood was sucked and reserved in the catheter for 10 minutes. Then, thrombus formed in the catheter was infused into the carotid artery together with thrombin (J. Cereb. Blood Flow Metab., 17, 123 (1997)).
The neurological symptoms of said rats were scored according to the method as described in Brain Res., 452, 323 (1988). The evaluation of score was carried out at 6 hours, 24 hours, 48 hours and 72 hours after infusion of thrombin, and the scores were accumulated. The survival period was determined by monitoring surviving or dead rats at intervals of one hour for the first 72 hours after the infusion of thrombin.
From forty minutes after thrombin infusion, t-PA (Activacin 100,000 international units, product of Kyowa Hakko Kogyo Co., Ltd.) was continuously administered in an amount of 33 μL/min to the anesthetized rats for 15 minutes. (R)-2-propyloctanoic acid (hereinafter referred to as compound A) in an amount of 10 mg/mL/kg was administered through tail vein of the rats three times at 6 hours, 24 hours and 48 hours after the infusion of thrombin.

dogs = conditions: dog, in vivo, 100 mg/kg
From the text: The toxicity of the astrocyte function-improving agent of the present invention is sufficiently very low and has been confirmed to be safe enough for pharmaceutical use.

[2] = accumulated score, rats surviving 72 h, average ± standard error

Structure (SMILES): CCCCCC[C@@H](CCC)C(=O)O [Compound A, (R)-2-propyloctanoic acid]
- Survival rate after 72 hours ([1]; 72 hours after thrombin infusion, 20 rats per group, * p<0.05 vs control (Log-rank test)): 60.0%*^)
- No. of surviving rats ([1]; 72 hours after thrombin infusion, 20 rats per group, t-PA infused from 40 min for 15 min, compound A 10 mg/mL/kg i.v. at 6, 24, 48 h): 12
- Neurological symptom score, 0 to 6 hours [1, 2]: 3.4 ± 0.1
- Neurological symptom score, 0 to 24 hours [1, 2]: 3.3 ± 0.1
- Neurological symptom score, 0 to 48 hours [1, 2]: 3.3 ± 0.1
- Neurological symptom score, 0 to 72 hours [1, 2]: 3.2 ± 0.2
- Death after single intravenous administration (dogs): no death was observed

Source: patent US7687489B2, “Agent for treatment of cerebral ischemic diseases” (Ono Pharmaceutical Co., Ltd., priority 2001, dated 2010)
